Columns and labels:
xanthine oxidase = xanthine oxidase (Homo sapiens, UniProt P47989); settings: as described in WO92/09279; cited from earlier work
[1] = Intrinsic dissolution rate (USP 24 <1087>); assay type: physicochemical; settings: pellets, second fluid of the disintegration test of Japanese Pharmacopoeia, 50 rpm
Experimental: The dissolution rate was measured according to USP 24, <1087>Intrinsic Dissolution. Specifically, the measurement was carried out as follows:
50 mg each of crystals powdered lightly in an agate mortar was set between plates, and a pressure of 754 kgf/cm^2 was applied thereto for one minute to produce pellets. As the testing solution, 900 mL of the second fluid of the disintegration test of Japanese Pharmacopoeia was used and the test was carried out at 50 rpm using the dissolution apparatus produced by Vankel. Subsequently, the testing liquid was filtered through a filter and the resultant, used as the sample solution, was tested with respect to a standard solution by a spectrophotometry (wavelength of 317 nm). The results are shown in Table 2, in which the order of the dissolution rate of the six crystals is as follows: E>A>B>D>G>C.

[2] = Physical stability of drug substance crystals at 40° C./75% RH (HPLC degradant, XRD/TG transformation); assay type: physicochemical; settings: for Transformation of crystal form on storage: 40° C./75% RH, storage for three months
Experimental: Each of the drug substances (crystals A, B, C, D, E and G) of 2-(3-cyano-4-isobutyloxyphenyl)-4-methyl-5-thiazolecarboxylic acid was tested in bottles with and without closure under the conditions of 40° C./75% RH. Any degradant was detected by a HPLC. Their transformation was detected by an X-ray powder diffraction pattern and by a thermal mass measurement method, and the 50% transform time was determined. There was no degradant for all of the six crystal forms.
For the above HPLC, Model 2690 produced by Waters was adopted, using an ODS column with a measured wave length of 217 nm at a predetermined temperature around 40° C.
For the above X-ray powder diffraction, Model XRD-6000 of Shimadzu Corp. was used.
For the above heat mass measurement, Model TGA7, Pyris1 produced by Perkin Elmer was used at a temperature rising speed of 40° C./min.

[3] = as described in WO99/65885; cited from earlier work
[4] = Pulverized particle size by image analysis; assay type: physicochemical
Experimental: Plain tablets were prepared by the method same as that of Example 1 except that particles (Particles 1˜4) shown in Table 7, with crystal A and with four different kinds of average particle sizes, were used as 2-(3-cyano-4-isobutyloxyphenyl)-4-methyl-5-thiazolecarboxylic acid. The obtained plain tablets were coated with coating liquid comprising purified water, polyethylene glycol and hydroxypropylmethyl cellulose by a coating machine (High Coater HCT-30, Freund Ind.).

[5] = 40° C./75% RH with closure, analysis XRD or TG
[6] = 40° C./75% RH without closure, analysis XRD or TG

Chain of xanthine oxidase (P47989 whole entry, species assumed): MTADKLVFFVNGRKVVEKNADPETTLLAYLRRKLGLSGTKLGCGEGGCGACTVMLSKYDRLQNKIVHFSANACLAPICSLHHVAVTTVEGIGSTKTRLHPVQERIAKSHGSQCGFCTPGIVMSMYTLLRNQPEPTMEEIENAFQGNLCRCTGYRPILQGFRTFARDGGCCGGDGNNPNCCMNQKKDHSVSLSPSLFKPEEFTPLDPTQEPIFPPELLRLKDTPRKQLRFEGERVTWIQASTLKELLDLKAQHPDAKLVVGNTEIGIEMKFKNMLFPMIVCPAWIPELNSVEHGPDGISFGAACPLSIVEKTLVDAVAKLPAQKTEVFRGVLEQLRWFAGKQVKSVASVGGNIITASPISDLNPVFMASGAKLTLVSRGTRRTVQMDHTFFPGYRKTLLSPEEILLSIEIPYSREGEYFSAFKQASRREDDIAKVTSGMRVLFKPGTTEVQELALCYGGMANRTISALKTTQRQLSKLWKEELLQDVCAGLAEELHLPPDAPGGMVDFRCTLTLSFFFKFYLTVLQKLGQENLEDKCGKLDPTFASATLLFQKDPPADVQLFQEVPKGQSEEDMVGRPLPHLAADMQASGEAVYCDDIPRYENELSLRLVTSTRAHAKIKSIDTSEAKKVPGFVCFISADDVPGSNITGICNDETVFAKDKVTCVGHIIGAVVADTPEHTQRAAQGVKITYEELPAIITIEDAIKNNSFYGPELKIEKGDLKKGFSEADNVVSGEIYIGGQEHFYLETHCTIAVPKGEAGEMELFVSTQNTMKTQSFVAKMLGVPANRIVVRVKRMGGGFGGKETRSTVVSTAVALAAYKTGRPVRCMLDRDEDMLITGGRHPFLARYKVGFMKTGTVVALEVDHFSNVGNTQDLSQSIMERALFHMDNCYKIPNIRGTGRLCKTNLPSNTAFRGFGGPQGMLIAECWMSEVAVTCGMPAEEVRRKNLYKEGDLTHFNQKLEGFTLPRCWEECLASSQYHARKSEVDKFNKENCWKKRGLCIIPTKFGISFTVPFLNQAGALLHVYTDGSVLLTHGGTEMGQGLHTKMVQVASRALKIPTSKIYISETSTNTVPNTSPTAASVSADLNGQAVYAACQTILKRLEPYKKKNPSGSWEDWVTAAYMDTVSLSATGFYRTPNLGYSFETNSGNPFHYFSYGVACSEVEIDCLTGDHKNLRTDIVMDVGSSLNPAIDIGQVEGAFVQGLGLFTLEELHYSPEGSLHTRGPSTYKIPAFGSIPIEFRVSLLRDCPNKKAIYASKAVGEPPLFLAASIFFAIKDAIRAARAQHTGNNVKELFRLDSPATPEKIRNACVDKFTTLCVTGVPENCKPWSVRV

| SMILES | Activity for inhibiting xanthine oxidase (xanthine oxidase) | Intrinsic rate [1] [mg/cm^2/min] | 50% Transform time [2, 5] | 50% Transform time [2, 6] | Transformation of crystal form on storage [2] | Retention of a crystal form in long term storage [3] | 50% Transform time ([2]; 40° C./75% RH without closure, analysis XRD) [days] | Pulverized particle size, 95% cumulative diameter [4] [μm] | Pulverized particle size, average particle diameter [4] [μm] |
| --- | --- | --- | --- | --- | --- | --- | --- | --- | --- |
| Cc1nc(-c2ccc(OCC(C)C)c(C#N)c2)sc1C(=O)O [2-(3-cyano-4-isobutyloxyphenyl)-4-methyl-5-thiazolecarboxylic acid] | strong activity |  |  |  |  |  |  |  |  |
| Cc1nc(-c2ccc(OCC(C)C)c(C#N)c2)sc1C(=O)O [Crystal A, 2-(3-cyano-4-isobutyloxyphenyl)-4-methyl-5-thiazolecarboxylic acid] |  | 0.1434 | (Not changed) | (Not changed) | stable | useful in view of retention of a crystal form in long term storage |  |  |  |
| Cc1nc(-c2ccc(OCC(C)C)c(C#N)c2)sc1C(=O)O [Crystal B, 2-(3-cyano-4-isobutyloxyphenyl)-4-methyl-5-thiazolecarboxylic acid] |  | 0.1242 | 5 days | 0.583 days | transformation of crystals B, D and E was detected |  |  |  |  |
| Cc1nc(-c2ccc(OCC(C)C)c(C#N)c2)sc1C(=O)O [Crystal C, 2-(3-cyano-4-isobutyloxyphenyl)-4-methyl-5-thiazolecarboxylic acid] |  | 0.0694 | (Not changed) | (Not changed) | stable | useful in view of retention of a crystal form in long term storage |  |  |  |
| Cc1nc(-c2ccc(OCC(C)C)c(C#N)c2)sc1C(=O)O [Crystal D, 2-(3-cyano-4-isobutyloxyphenyl)-4-methyl-5-thiazolecarboxylic acid] |  | 0.1092 | 17 days | 0.0104 days | transformation of crystals B, D and E was detected |  |  |  |  |
| Cc1nc(-c2ccc(OCC(C)C)c(C#N)c2)sc1C(=O)O [Crystal E, 2-(3-cyano-4-isobutyloxyphenyl)-4-methyl-5-thiazolecarboxylic acid] |  | 0.1874 | 55 days |  | transformation of crystals B, D and E was detected |  | 19 |  |  |
| Cc1nc(-c2ccc(OCC(C)C)c(C#N)c2)sc1C(=O)O [Crystal G, 2-(3-cyano-4-isobutyloxyphenyl)-4-methyl-5-thiazolecarboxylic acid] |  | 0.0967 | (Not changed) | (Not changed) | stable | useful in view of retention of a crystal form in long term storage |  |  |  |
| Cc1nc(-c2ccc(OCC(C)C)c(C#N)c2)sc1C(=O)O [Particle 1, 2-(3-cyano-4-isobutyloxyphenyl)-4-methyl-5-thiazolecarboxylic acid] |  |  |  |  |  |  |  | 5.6 | 3.5 |
| Cc1nc(-c2ccc(OCC(C)C)c(C#N)c2)sc1C(=O)O [Particle 2, 2-(3-cyano-4-isobutyloxyphenyl)-4-methyl-5-thiazolecarboxylic acid] |  |  |  |  |  |  |  | 29.5 | 12.9 |
| Cc1nc(-c2ccc(OCC(C)C)c(C#N)c2)sc1C(=O)O [Particle 3, 2-(3-cyano-4-isobutyloxyphenyl)-4-methyl-5-thiazolecarboxylic acid] |  |  |  |  |  |  |  | 74.7 | 26.2 |
| Cc1nc(-c2ccc(OCC(C)C)c(C#N)c2)sc1C(=O)O [Particle 4, 2-(3-cyano-4-isobutyloxyphenyl)-4-methyl-5-thiazolecarboxylic acid] |  |  |  |  |  |  |  | 140.8 | 48.6 |

Source: US7361676B2, “Solid preparation containing single crystal form” (Teijin Limited, priority 2002, dated 2008)
